Assay results as given in patent publication US20230058171A1, “NEW ORAL PHARMACEUTICAL COMPOSITION FOR CANCER THERAPY” (BOEHRINGER INGELHEIM INTERNATIONAL GMBH, priority 2021, published 2023).

Tested on: patients
Experiment: Trial 1403-0002 combination with ezabenlimab (and anti-LAG3-1): adverse events
Settings: for AEs leading to Discontinuation: Dose limiting toxicity, % / AEs leading to Discontinuation: Other adverse event, % / Patients with Dose limiting toxicity (cycle one), % / Serious AEs: Cogenital Anomaly or Birth Defect, % / Serious AEs: Is Life Threatening, % / Serious AEs: Other Medically Important Serious Event, % / Serious AEs: Persists of Signif. Disability/Incapacity, % / Serious AEs: Requires or Prolongs Hospitalization, % / Serious AEs: Results in Death, % / Subjects with AEs leading to Discontinuation of trial drug, % / Subjects with AEs leading to dose reduction of trial drug, % / Subjects with any AE, % / Subjects with immune-related AEs, % / Subjects with infusion related reactions, % / Subjects with investigator defined drug-related AEs, % / Subjects with maximum CTC Grade 1, % / Subjects with maximum CTC Grade 2, % / Subjects with maximum CTC Grade 3, % / Subjects with maximum CTC Grade 4, % / Subjects with maximum CTC Grade 5, % / Subjects with serious AEs, %: triple combination D1 q3w
[1] = double combination with 240 mg ezabenlimab, 15 patients

Cc1c(C(=O)O)ccc2c3n(nc12)[C@@H]1[C@H](C3)N(CC2CC2)[C@@]2(C(=O)Nc3cc(Cl)ccc32)[C@H]1c1cccc(Cl)c1F [MDM2-antagonist of formula I, (2′S,3′S,3a'S,10a'S)-6-chloro-3′-(3-chloro-2-fluorophenyl)-1′-(cyclopropylmethyl)-6′-methyl-2-oxo-1,2,3′,3a′,10′,10a′-hexahydro-1′H-spiro[indole-3,2′-pyrrolo[2′,3′:4,5]pyrrolo[1,2-b]indazole]-7′-carboxylic acid]
3 patients: patients with Grade ≥3 lymphopenia [1]
0%: AEs leading to Discontinuation: Dose limiting toxicity, % (10 mg) | AEs leading to Discontinuation: Other adverse event, % (10 mg) | Patients with Dose limiting toxicity (cycle one), % (10 mg) | Serious AEs: Cogenital Anomaly or Birth Defect, % (10 mg) | Serious AEs: Is Life Threatening, % (10 mg) | Serious AEs: Other Medically Important Serious Event, % (10 mg) | Serious AEs: Persists of Signif. Disability/Incapacity, % (10 mg) | Serious AEs: Requires or Prolongs Hospitalization, % (10 mg) | Serious AEs: Results in Death, % (10 mg) | Subjects with AEs leading to Discontinuation of trial drug, % (10 mg) | Subjects with AEs leading to dose reduction of trial drug, % (10 mg) | Subjects with immune-related AEs, % (10 mg) | Subjects with maximum CTC Grade 3, % (10 mg) | Subjects with maximum CTC Grade 4, % (10 mg) | Subjects with maximum CTC Grade 5, % (10 mg) | Subjects with serious AEs, % (10 mg) | AEs leading to Discontinuation: Dose limiting toxicity, % (20 mg) | AEs leading to Discontinuation: Other adverse event, % (20 mg) | Patients with Dose limiting toxicity (cycle one), % (20 mg) | Serious AEs: Cogenital Anomaly or Birth Defect, % (20 mg) | Serious AEs: Is Life Threatening, % (20 mg) | Serious AEs: Other Medically Important Serious Event, % (20 mg) | Serious AEs: Persists of Signif. Disability/Incapacity, % (20 mg) | Serious AEs: Results in Death, % (20 mg) | Subjects with AEs leading to Discontinuation of trial drug, % (20 mg) | Subjects with AEs leading to dose reduction of trial drug, % (20 mg) | Subjects with infusion related reactions, % (20 mg) | Subjects with maximum CTC Grade 1, % (20 mg) | Subjects with maximum CTC Grade 2, % (20 mg) | Subjects with maximum CTC Grade 4, % (20 mg) | Subjects with maximum CTC Grade 5, % (20 mg) | AEs leading to Discontinuation: Dose limiting toxicity, % (30 mg) | AEs leading to Discontinuation: Other adverse event, % (30 mg) | Patients with Dose limiting toxicity (cycle one), % (30 mg) | Serious AEs: Cogenital Anomaly or Birth Defect, % (30 mg) | Serious AEs: Is Life Threatening, % (30 mg) | Serious AEs: Other Medically Important Serious Event, % (30 mg) | Serious AEs: Persists of Signif. Disability/Incapacity, % (30 mg) | Serious AEs: Results in Death, % (30 mg) | Subjects with AEs leading to Discontinuation of trial drug, % (30 mg) | Subjects with immune-related AEs, % (30 mg) | Subjects with infusion related reactions, % (30 mg) | Subjects with maximum CTC Grade 1, % (30 mg) | Subjects with maximum CTC Grade 5, % (30 mg) | AEs leading to Discontinuation: Dose limiting toxicity, % (45 mg) | AEs leading to Discontinuation: Other adverse event, % (45 mg) | Patients with Dose limiting toxicity (cycle one), % (45 mg) | Serious AEs: Cogenital Anomaly or Birth Defect, % (45 mg) | Serious AEs: Is Life Threatening, % (45 mg) | Serious AEs: Other Medically Important Serious Event, % (45 mg) | Serious AEs: Persists of Signif. Disability/Incapacity, % (45 mg) | Serious AEs: Results in Death, % (45 mg) | Subjects with AEs leading to Discontinuation of trial drug, % (45 mg) | Subjects with immune-related AEs, % (45 mg) | Subjects with infusion related reactions, % (45 mg) | Subjects with maximum CTC Grade 1, % (45 mg) | Subjects with maximum CTC Grade 3, % (45 mg) | Subjects with maximum CTC Grade 5, % (45 mg) | AEs leading to Discontinuation: Dose limiting toxicity, % (Total) | AEs leading to Discontinuation: Other adverse event, % (Total) | Patients with Dose limiting toxicity (cycle one), % (Total) | Serious AEs: Cogenital Anomaly or Birth Defect, % (Total) | Serious AEs: Is Life Threatening, % (Total) | Serious AEs: Other Medically Important Serious Event, % (Total) | Serious AEs: Persists of Signif. Disability/Incapacity, % (Total) | Serious AEs: Results in Death, % (Total) | Subjects with AEs leading to Discontinuation of trial drug, % (Total) | Subjects with maximum CTC Grade 5, % (Total)
6 patients: patients with Grade ≥3 anemia [1]
Four: DLTs reported after cycle 1 [1]
4 patients: patients with Grade ≥3 thrombocytopenia [1]
45.5%: Serious AEs: Requires or Prolongs Hospitalization, % (Total) | Subjects with serious AEs, % (Total)
18.2%: Subjects with AEs leading to dose reduction of trial drug, % (Total) | Subjects with maximum CTC Grade 4, % (Total)
eight: patients with Grade ≥3 adverse events [1]
100%: Subjects with any AE, % (10 mg) | Subjects with investigator defined drug-related AEs, % (10 mg) | Subjects with any AE, % (20 mg) | Subjects with investigator defined drug-related AEs, % (20 mg) | Subjects with maximum CTC Grade 3, % (20 mg) | Subjects with any AE, % (30 mg) | Subjects with investigator defined drug-related AEs, % (30 mg) | Subjects with any AE, % (45 mg) | Subjects with investigator defined drug-related AEs, % (45 mg) | Subjects with any AE, % (Total) | Subjects with investigator defined drug-related AEs, % (Total)
9.1%: Subjects with immune-related AEs, % (Total) | Subjects with infusion related reactions, % (Total) | Subjects with maximum CTC Grade 1, % (Total)
50.0%: Serious AEs: Requires or Prolongs Hospitalization, % (45 mg) | Subjects with AEs leading to dose reduction of trial drug, % (45 mg) | Subjects with maximum CTC Grade 2, % (45 mg) | Subjects with maximum CTC Grade 4, % (45 mg) | Subjects with serious AEs, % (45 mg)
66.7%: Subjects with maximum CTC Grade 2, % (10 mg) | Serious AEs: Requires or Prolongs Hospitalization, % (20 mg) | Subjects with serious AEs, % (20 mg) | Serious AEs: Requires or Prolongs Hospitalization, % (30 mg) | Subjects with serious AEs, % (30 mg)
33.3%: Subjects with infusion related reactions, % (10 mg) | Subjects with maximum CTC Grade 1, % (10 mg) | Subjects with immune-related AEs, % (20 mg) | Subjects with AEs leading to dose reduction of trial drug, % (30 mg) | Subjects with maximum CTC Grade 2, % (30 mg) | Subjects with maximum CTC Grade 3, % (30 mg) | Subjects with maximum CTC Grade 4, % (30 mg)
One: patients with a DLT during cycle 1 (double combination with 240 mg ezabenlimab, 15 patients, Grade 2 neutropenia at 45 mg)
36.4%: Subjects with maximum CTC Grade 2, % (Total) | Subjects with maximum CTC Grade 3, % (Total)
manageable safety profile: safety profile (double combination, 30 mg or 45 mg + 240 mg ezabenlimab D1 q3w)
